Measured values as given in US5178873A, “Essential fatty acid treatment” (Efamol Holdings PLC, priority 1990, dated 1993).

Tests used:
human epidermal PLA2 = test: inhibition of human epidermal PLA2 activity by fatty acids (1-palmitoyl 2-1-^14 C. palmitoyl phosphatidyl choline substrate); format: biochemical; settings: for IC50: purified human epidermal enzyme, standard assay with 1-palmitoyl 2-1-^14 C. palmitoyl phosphatidyl choline; for ability to inhibit PLA2, ranking among fatty acids tested: PLA2 isolated from human skin, stated for both test systems
Experimental: (§1) In the experimental work on which the above discussion is based, epidermal PLA2 was prepared from isolated mouse or human epidermal cells by detergent solubilisation, ion exchange chromatography and gel filtration. Both enzymes had molecular weights in the region of 68,000, a pH optimum around 9.0 and an absolute requirement for calcium ions. Phospholipids were prepared as both unilamellar vesicles and detergent micelles. PLA2 activity was readily detected using these substrates, with no apparent preference for polar head group. For the standard assay, 1-palmitoyl 2-1-^14 C. palmitoyl phosphatidyl choline was used. The reaction was initiated by the addition of purified enzyme and terminated by the addition of chloroform/methanol/acetic acid (3:4:1). The free fatty acid was extracted, separated by thin layer chromatography and quantified by scintillation counting. Ranges of concentrations of various fatty acids were added to the reaction mixture to assess their ability to inhibit PLA2. Dose response curves were constructed and the IC50 value (the concentration of fatty acid required to inhibit enzyme activity by 50%) was estimated. Similar experiments were performed using macrophages isolated from rat peritoneal cavity by lavage.

rat macrophage PLA2 = test: inhibition of rat macrophage PLA2 activity by fatty acids; format: biochemical; settings: for IC50: macrophages isolated from rat peritoneal cavity by lavage; for ability to inhibit PLA2, ranking among fatty acids tested: PLA2 from rat macrophages, stated for both test systems
Experimental: as §1

CCCCC/C=C\C/C=C\C/C=C\CCCCCCC(=O)O [cis 8,11,14-eicosatrienoic]
IC50 (human epidermal PLA2): 61 ± 5 µM
IC50 (rat macrophage PLA2): 71 ± 11 µM

CCCCCCCCCCC/C=C\CCCCC(=O)O [18:1 cis 6-octadecenoic, cis 6-octadecenoic]
IC50 (human epidermal PLA2): > 100 µM
IC50 (rat macrophage PLA2): > 100 µM

CC/C=C\C/C=C\C/C=C\CCCCCCCC(=O)O [cis 9,12,15-octadecatrienoic]
IC50 (human epidermal PLA2): 45 ± 6 µM
IC50 (rat macrophage PLA2): 75 ± 9 µM

CCCCC/C=C\C/C=C\C/C=C\C/C=C\CCCC(=O)O [20:4 cis 5,8,11,14-eicosatetraenoic (AA), cis 5,8,11,14-eicosatetraenoic]
ability to inhibit PLA2, ranking among fatty acids tested (human epidermal PLA2): closest to SA in its ability to inhibit PLA2
IC50 (human epidermal PLA2): 45 ± 8 µM
ability to inhibit PLA2, ranking among fatty acids tested (rat macrophage PLA2): closest to SA in its ability to inhibit PLA2
IC50 (rat macrophage PLA2): 65 ± 8 µM

CCCCC/C=C\C/C=C\CCCCCCCCCC(=O)O [20:2 cis 11,14-eicosadienoic, cis 11,14-eicosadienoic]
IC50 (human epidermal PLA2): 87 ± 6 µM

CCCCCCCC/C=C\CCCCCCCCCC(=O)O [20:1 cis 11-eicosenoic, cis 11-eicosenoic]
IC50 (human epidermal PLA2): > 100 µM
IC50 (rat macrophage PLA2): > 100 µM

CCCCC/C=C\C/C=C\CCCCCCCC(=O)O [18:2 cis 9,12-octadecadienoic (linoleic), delta-9,12-octadecadienoic acid]
IC50 (human epidermal PLA2): 85 ± 5 µM

CC/C=C\C/C=C\C/C=C\C/C=C\CCCCC(=O)O [delta-6,9,12,15-octadecatetraenoic acid]
ability to inhibit PLA2, ranking among fatty acids tested (human epidermal PLA2): the most potent of all the fatty acids tested
IC50 (human epidermal PLA2): 37 ± 3 µM
ability to inhibit PLA2, ranking among fatty acids tested (rat macrophage PLA2): the most potent of all the fatty acids tested
IC50 (rat macrophage PLA2): 52 ± 8 µM

CC/C=C\C/C=C\C/C=C\C/C=C\C/C=C\CCCC(=O)O [cis 5,8,11,14,17-eicosapentaenoic]
IC50 (human epidermal PLA2): 58 ± 4 µM

CCCCC/C=C\C/C=C\C/C=C\CCCCC(=O)O [cis 6,9,12-octadecatrienoic]
IC50 (human epidermal PLA2): 52 ± 3 µM
